{"source": "paper PMC7766124", "about": "“Improved Cell Selectivity of Pseudin-2 via Substitution in the Leucine-Zipper Motif: In Vitro and In Vivo Antifungal Activity” (Antibiotics, 2020)", "key": {"[1]": {"assay": "Calcein leakage from fungus-mimic artificial vesicles", "settings": "fungus-mimic PC/PE/PI/ergosterol vesicles, 20 μM lipid; peptide/lipid molar ratio 0.05; 100% = 0.03% Triton X-100; three independent experiments", "description": "The permeability of peptides in calcein-entrapped artificial liposomes was assayed by measuring calcein leakage. The desired mixtures of lipids (PC/PE/PI/ergosterol, 5:4:1:2 and PC/CH/SM, 2:1:1, weight ratio) were dissolved in chloroform at 10 mg/mL, dried in a glass tube under nitrogen, and then lyophilized overnight to remove residual solvent. The dried lipid films were resuspended in 1 mL of dye solution (80 mM calcein, 10 mM HEPES buffer, pH 7.2) at 50 °C and vortexed, followed by freeze-thawing for nine cycles and extrusion with polycarbonate filters (0.2-μm pore-size) using an Avanti Mini-Extruder (Avanti Polar Lipids Inc., Alabaster, AL, USA). Free calcein was removed using PD-10 desalting columns (GE Healthcare Life Science, Seoul, Korea). Calcein-entrapped vesicles of 20 μM lipids were incubated with peptides at concentrations of […], 0.02, 0.05, and 0.1 molar ratio (peptide/lipid) and the fluorescence was assessed at 480 (Ex) and 520 (Em) nm using a microtiter SpectraMax M5 reader (Molecular Devices). Complete (100%) release was achieved by the addition of 0.03% Triton X-100 (v/v)."}, "[2]": {"tested_on": "A. flavus", "type": "cell-based, Aspergillus flavus (KCTC 6905)", "settings": "36 h", "description": "(§1) Aspergillus flavus (KCTC 6905), A. fumigatus (KCTC 6145), Fusarium moniliforme (KCTC 6149), F. oxysporum (KCTC 16909), C. albicans (KCTC 7270), C. krusei (CCARM 14017), C. parapsilosis (CCARM 14016), C. tropicalis (KCTC 7221), and T. beigelii (KCTC 7707) were obtained from the Korea Collection for Type Cultures (KCTC) and Culture Collection of Antimicrobial Resistant Microbes (CCARM). Mold and yeast fungi were pre-grown on potato dextrose (PD) and yeast extract peptone dextrose (YPD) agars, respectively.\n(§2) Antifungal activity of peptides was performed by microtiter plate assays. Fungal conidia from four-day-old molds were collected using 0.08% Triton X-100 (v/v), and pre-cultivated yeast cells were adjusted to 2 × 10^4 spores/mL in 10 mM sodium phosphate buffer (SP, pH 7.2) or 10 mM 2-(N-morpholino)ethanesulfonic acid (MES) buffer (pH 5.5) supplemented with 20% culture medium, followed by addition to peptide solutions (0.25, 0.5, 1, 1.5, 2, 4, 6, 8, 12, 16, 32, 48, and 64 µM) in 96-well microtiter plates. After incubation for 36 h at 28 °C, the hyphal growth of conidia and the proliferation of yeast cells were observed under a light microscope. All assays were performed in triplicate. The MIC values were defined as the lowest concentration of samples that reduced fungal germination (for mold) or cell proliferation (for yeast) by more than 90% [34]."}, "[3]": {"tested_on": "Candida albicans, C. krusei, C. tropicalis, and Trichosporon beigelii", "assay": "Antifungal microtiter plate assay (MIC), range over pathogenic yeasts", "type": "cell-based", "settings": "neutral pH; range over four yeasts", "description": "as §2"}, "[4]": {"tested_on": "C. tropicalis", "type": "cell-based, C. tropicalis (KCTC 7221)", "settings": "36 h", "description": "as §1, §2"}, "[5]": {"tested_on": "C. albicans", "type": "cell-based, C. albicans (KCTC 7270)", "settings": "36 h", "description": "as §1, §2"}, "[6]": {"tested_on": "C. parapsilosis", "type": "cell-based, C. parapsilosis (CCARM 14016)", "settings": "36 h", "description": "as §1, §2"}, "[7]": {"tested_on": "A. fumigatus", "type": "cell-based, A. fumigatus (KCTC 6145)", "settings": "36 h", "description": "as §1, §2"}, "[8]": {"tested_on": "T. beigelii", "type": "cell-based, T. beigelii (KCTC 7707)", "settings": "36 h", "description": "as §1, §2"}, "[9]": {"tested_on": "F. moniliforme", "type": "cell-based, Fusarium moniliforme (KCTC 6149)", "settings": "36 h", "description": "as §1, §2"}, "[10]": {"tested_on": "F. oxysporum", "type": "cell-based, F. oxysporum (KCTC 16909)", "settings": "36 h", "description": "as §1, §2"}, "[11]": {"tested_on": "C. krusei", "type": "cell-based, C. krusei (CCARM 14017)", "settings": "36 h", "description": "as §1, §2"}, "[12]": {"tested_on": "C. tropicalis", "assay": "C. tropicalis skin infection mouse model", "type": "in vivo, BALB/C female mice", "description": "All animal experiments and procedures were performed with the approval of the Institutional Animal Care and Use Committee (IACUC) of Sunchon National University, Korea (SCNU IACUC-2019-10). BALB/C female mice (six weeks old) were obtained from Koatech Co. (Pyongtaek, Gyeonggido, Korea) and divided into three groups (n = 4): control, pseudin-2, and P2-LZ4 groups. The skin on the back of each mouse was shaved 1 h before infection, and the mice were anesthetized by inhalation of 5% (induction) and 2% (maintenance) isoflurane in pure oxygen. Mice were then subjected to subcutaneous infection with 100 µL C. tropicalis (10^7 cells/mL) by injection into the dorsum of each mouse. At 24 h after infection, 100 µL PBS, pseudin-2 (0.1 mg/mL), or P2-LZ4 (0.1 mg/mL) was injected into the same site. At four days after peptide injection, mice were euthanized by CO2 inhalation, and the infected skin tissues were excised, fixed in 4% paraformaldehyde, embedded in paraffin, stained with H&E, and observed by light microscopy."}}, "note": "Like-named read-outs stand apart in the source and are kept apart here. No end group written: not given here.", "data": [{"substance": "GLNALKKVAQGIHEAAKLINNHVQ-NH2 [P2-LZ4]", "values": [{"measurement": "leakage of calcein", "setting": "[1]", "result": 80.5, "unit": "%"}, {"measurement": "MIC", "setting": "[2]; pH 5.5", "result": 16, "unit": "µM"}, {"measurement": "MIC", "setting": "[2]; pH 7.2", "result": 32, "unit": "µM"}, {"measurement": "MICs against pathogenic yeast cells", "setting": "[3]", "result": "1.5 to 6", "unit": "µM"}, {"measurement": "MIC", "setting": "[4]; pH 5.5", "result": 1, "unit": "µM"}, {"measurement": "MIC", "setting": "[4]; pH 7.2", "result": 2, "unit": "µM"}, {"measurement": "MIC", "setting": "[5]; pH 5.5", "result": 8, "unit": "µM"}, {"measurement": "MIC", "setting": "[5]; pH 7.2", "result": 4, "unit": "µM"}, {"measurement": "MIC", "setting": "[6]; pH 5.5", "result": "> 64", "unit": "µM"}, {"measurement": "MIC", "setting": "[6]; pH 7.2", "result": 48, "unit": "µM"}, {"measurement": "MIC", "setting": "[7]; pH 5.5", "result": 16, "unit": "µM"}, {"measurement": "MIC", "setting": "[7]; pH 7.2", "result": 32, "unit": "µM"}, {"measurement": "MIC", "setting": "[8]; pH 5.5", "result": 1, "unit": "µM"}, {"measurement": "MIC", "setting": "[8]; pH 7.2", "result": 1.5, "unit": "µM"}, {"measurement": "MIC", "setting": "[9]; pH 5.5", "result": "32 (32) µM"}, {"measurement": "MIC", "setting": "[9]; pH 7.2", "result": "32 (32) µM"}, {"measurement": "MIC", "setting": "[10]; pH 5.5", "result": 16, "unit": "µM"}, {"measurement": "MIC", "setting": "[10]; pH 7.2", "result": 2, "unit": "µM"}, {"measurement": "MIC", "setting": "[11]; pH 5.5", "result": 8, "unit": "µM"}, {"measurement": "MIC", "setting": "[11]; pH 7.2", "result": 6, "unit": "µM"}, {"measurement": "histological evaluation of skin tissues (H&E)", "setting": "[12]; 100 µL of 0.1 mg/mL peptide s.c. 24 h after infection, tissues taken four days after peptide injection", "result": "nearly identical to those of the PBS-treated mice"}, {"measurement": "skin lesions (swelling and redness in the dorsal skin)", "setting": "[12]; 100 µL of 0.1 mg/mL peptide s.c. 24 h after s.c. infection, monitored seven days, n = 4", "result": "no obvious skin lesions"}]}]}
